From patent US20260325533A1, “CDK INHIBITOR COMPOUNDS” (ALEKSIA THERAPEUTICS, INC., priority 2023, published 2026)
Where two headings read alike, the source gives them in different places. Values belong to the compound of their own block, whether it stands above or below them.

How the values were obtained:
Assay type in all cases: biochemical
[1] = biological target: CDK2/CCNE1 (Homo sapiens, UniProt P24941); assay: CDK2 homogeneous time-resolved fluorescence (HTRF) kinase assay; details: CDK2/CCNE
How it was run: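 Compounds were titrated 11-point, half-log from typically 10 μM against 3 nM CDK2/cyclin E1 at 1 mM ATP, with a 20 min enzyme preincubation. Phosphorylation of 50 nM ULight-4E-BP1 peptide over 60 min at 23 °C was detected by europium anti-phospho antibody TR-FRET.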

[2] = biological target: CDK1/CCNB1 (Homo sapiens, UniProt P06493); assay: CDK1 homogeneous time-resolved fluorescence (HTRF) kinase assay; details: CDK1/CCNB
How it was run: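 HTRF assay with 0.5 nM CDK1/CCNB1, 1 mM ATP, 50 nM ULight-eIF4E-BP1 (Thr37/46) peptide; compound preincubated 20 min, reaction 60 min at 23 °C, EDTA stop, Eu-anti-phospho antibody detection. 11-point half-log titration from 10 μM, 1% DMSO; IC50 from 665 nm or 665/615 signal.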

[3] = biological target: CDK4/CCND3 (Homo sapiens, UniProt P11802); assay: CDK4 homogeneous time-resolved fluorescence (HTRF) kinase assay; details: CDK4/CCND
How it was run: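 Steps: compound plus 1.5 nM CDK4/CCND3, 20 min, 23 °C; add 1 mM ATP and 50 nM ULight-4E-BP1 (Thr37/46) peptide, 60 min; stop with 10 mM EDTA; add 2 nM Eu anti-phospho antibody, 60 min; read 665 nm. IC50 from 11-point half-log series starting 10 μM.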

[4] = biological target: CDK6/CCND1 (Homo sapiens, UniProt Q00534); assay: CDK6 homogeneous time-resolved fluorescence (HTRF) kinase assay; details: CDK6/CCND, 1 mM ATP
How it was run: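 Enzyme pre-incubated 20 min at 23 °C with compound, then reacted 60 min at 23 °C with 1 mM ATP and 50 nM ULight-4E-BP1 (Thr37/46) peptide; 1 nM enzyme, 1% DMSO. EDTA-stopped, Eu-anti-phospho antibody TR-FRET read (665 nm or 665/615 ratio); 11-point half-log titration from 10 μM gave IC50.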

[5] = <25 nM, read-out: CDK2/CCNE IC50, <25 nM
[6] = >250 nM, read-out: CDK1/CCNB IC50 >250 nM
[7] = >250 nM, read-out: CDK4/CCND IC50, >250 nM
[8] = >250 nM, read-out: CDK6/CCND IC50, >250 nM
[9] = 25-250 nM, read-out: CDK2/CCNE IC50, 25-250 nM
[10] = >250 nM, read-out: CDK2/CCNE IC50, >250 nM

Chain of CDK6/CCND1 (Q00534 whole entry): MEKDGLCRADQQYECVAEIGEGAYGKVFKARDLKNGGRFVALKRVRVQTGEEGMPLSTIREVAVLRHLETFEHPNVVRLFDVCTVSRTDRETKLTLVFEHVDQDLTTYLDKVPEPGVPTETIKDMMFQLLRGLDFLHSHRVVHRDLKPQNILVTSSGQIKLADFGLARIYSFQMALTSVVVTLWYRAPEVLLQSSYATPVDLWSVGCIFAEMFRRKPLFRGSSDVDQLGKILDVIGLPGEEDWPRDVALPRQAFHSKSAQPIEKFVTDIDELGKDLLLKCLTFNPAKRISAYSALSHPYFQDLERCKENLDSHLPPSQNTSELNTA
Chain of CDK6/CCND1 (P24385 whole entry partner): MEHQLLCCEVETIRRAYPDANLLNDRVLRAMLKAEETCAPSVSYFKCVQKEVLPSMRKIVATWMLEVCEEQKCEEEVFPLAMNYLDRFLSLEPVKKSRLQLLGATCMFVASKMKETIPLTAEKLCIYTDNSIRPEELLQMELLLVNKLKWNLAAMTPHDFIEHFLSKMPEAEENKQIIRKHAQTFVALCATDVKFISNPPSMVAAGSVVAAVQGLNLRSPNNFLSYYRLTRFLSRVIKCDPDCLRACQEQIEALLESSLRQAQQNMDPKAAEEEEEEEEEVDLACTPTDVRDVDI
Chain of CDK4/CCND3 (P11802 whole entry): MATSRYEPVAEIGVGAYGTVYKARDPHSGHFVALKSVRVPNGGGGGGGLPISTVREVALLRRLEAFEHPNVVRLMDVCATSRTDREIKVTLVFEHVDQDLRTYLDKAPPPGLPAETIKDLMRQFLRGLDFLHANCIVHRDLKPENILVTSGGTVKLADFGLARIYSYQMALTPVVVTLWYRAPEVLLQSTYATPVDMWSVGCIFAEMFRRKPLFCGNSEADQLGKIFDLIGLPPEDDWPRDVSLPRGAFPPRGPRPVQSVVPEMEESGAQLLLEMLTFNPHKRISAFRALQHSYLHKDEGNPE
Chain of CDK4/CCND3 (P30281 whole entry partner): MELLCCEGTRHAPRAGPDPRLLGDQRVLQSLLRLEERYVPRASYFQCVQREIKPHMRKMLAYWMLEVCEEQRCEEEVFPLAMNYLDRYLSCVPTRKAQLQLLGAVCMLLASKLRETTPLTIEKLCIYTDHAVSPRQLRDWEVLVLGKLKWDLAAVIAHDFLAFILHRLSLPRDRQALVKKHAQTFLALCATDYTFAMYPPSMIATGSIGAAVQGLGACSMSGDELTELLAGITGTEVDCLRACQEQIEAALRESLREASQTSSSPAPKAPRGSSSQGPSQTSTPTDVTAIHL
Chain of CDK1/CCNB1 (P06493 whole entry): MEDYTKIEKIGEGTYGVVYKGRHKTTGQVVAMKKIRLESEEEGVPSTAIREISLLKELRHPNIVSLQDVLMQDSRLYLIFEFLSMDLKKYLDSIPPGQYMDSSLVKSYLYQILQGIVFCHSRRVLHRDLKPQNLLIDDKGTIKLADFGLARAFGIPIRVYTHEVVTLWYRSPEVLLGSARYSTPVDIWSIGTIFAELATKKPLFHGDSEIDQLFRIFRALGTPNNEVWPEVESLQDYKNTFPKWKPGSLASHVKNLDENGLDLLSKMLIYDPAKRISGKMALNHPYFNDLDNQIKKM
Chain of CDK1/CCNB1 (P14635 whole entry partner): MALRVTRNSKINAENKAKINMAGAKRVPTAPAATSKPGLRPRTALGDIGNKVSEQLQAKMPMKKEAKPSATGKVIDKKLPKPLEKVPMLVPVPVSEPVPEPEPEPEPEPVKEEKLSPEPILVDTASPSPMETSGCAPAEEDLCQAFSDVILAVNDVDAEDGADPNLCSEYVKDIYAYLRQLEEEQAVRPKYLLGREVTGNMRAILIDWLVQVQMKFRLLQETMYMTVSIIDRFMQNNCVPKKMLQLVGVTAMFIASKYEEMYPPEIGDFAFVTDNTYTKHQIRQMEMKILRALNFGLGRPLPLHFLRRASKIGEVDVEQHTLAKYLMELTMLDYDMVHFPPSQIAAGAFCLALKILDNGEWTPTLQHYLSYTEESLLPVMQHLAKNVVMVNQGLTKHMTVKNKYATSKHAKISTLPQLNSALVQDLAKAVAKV

SMILES: CN1CCN(c2ccc(C#Cc3nccc4cnc(Nc5ccc(S(N)(=O)=O)cc5)cc34)cc2)CC1 [Ex 876, 4-((5-((4-(4-methylpiperazin-1-yl)phenyl)ethynyl)-2,6-naphthyridin-3-yl)amino)benzenesulfonamide]
IC50 [1, 5]: < 25 nM
IC50 ([2]; 25-250 nM, read-out: CDK1/CCNB IC50, 25-250 nM): 25 to 250 nM
IC50 ([3]; 25-250 nM, read-out: CDK4/CCND IC50, 25-250 nM): 25 to 250 nM
IC50 ([4]; 25-250 nM, read-out: CDK6/CCND IC50, 25-250 nM): 25 to 250 nM

SMILES: COc1cncc(C#Cc2nccc3cnc(Nc4ccc(S(C)(=O)=O)cc4)cc23)c1 [Ex 882, 5-((5-methoxypyridin-3-yl)ethynyl)-N-(4-(methylsulfonyl)phenyl)-2,6-naphthyridin-3-amine]
IC50 [1, 9]: 25 to 250 nM
IC50 [2, 6]: > 250 nM
IC50 [3, 7]: > 250 nM
IC50 [4, 8]: > 250 nM

SMILES: Cc1nc[nH]c1C#Cc1nccc2cnc(Nc3ccc(S(C)(=O)=O)cc3)cc12 [Ex 883, 5-((4-methyl-1H-imidazol-5-yl)ethynyl)-N-(4-(methylsulfonyl)phenyl)-2,6-naphthyridin-3-amine]
IC50 [1, 9]: 25 to 250 nM
IC50 [2, 6]: > 250 nM
IC50 [3, 7]: > 250 nM
IC50 [4, 8]: > 250 nM

SMILES: O=c1ccc(C#Cc2nccc3cnc(Nc4cnc(O)c(N5CCNCC5)c4)cc23)n[nH]1 [Ex 886, 6-((7-((6-hydroxy-5-(piperazin-1-yl)pyridin-3-yl)amino)-2,6-naphthyridin-1-yl)ethynyl)pyridazin-3(2H)-one]
IC50 [1, 9]: 25 to 250 nM
IC50 [2, 6]: > 250 nM
IC50 [3, 7]: > 250 nM
IC50 [4, 8]: > 250 nM

SMILES: Cc1c(-c2nccc3cnc(Nc4cnc(O)c(N5CCNCC5)c4)cc23)ccc2c1cnn2CC(C)(C)O [Ex 888, 5-((5-(1-(2-hydroxy-2-methylpropyl)-4-methyl-1H-indazol-5-yl)-2,6-naphthyridin-3-yl)amino)-3-(piperazin-1-yl)pyridin-2-ol]
IC50 [1, 9]: 25 to 250 nM
IC50 [2, 6]: > 250 nM
IC50 [3, 7]: > 250 nM
IC50 [4, 8]: > 250 nM

SMILES: CC#Cc1nccc2cnc(Nc3ccc(S(=O)(=O)Nc4ncc(C)cn4)cc3)cc12 [Ex 889, N-(5-methylpyrimidin-2-yl)-4-((5-(prop-1-yn-1-yl)-2,6-naphthyridin-3-yl)amino)benzenesulfonamide]
IC50 [1, 9]: 25 to 250 nM
IC50 [2, 6]: > 250 nM
IC50 [3, 7]: > 250 nM
IC50 [4, 8]: > 250 nM

SMILES: CC#Cc1nccc2cnc(Nc3ccc(S(=O)(=O)Nc4nc(OC)cc(OC)n4)cc3)cc12 [Ex 890, N-(4,6-dimethoxypyrimidin-2-yl)-4-((5-(prop-1-yn-1-yl)-2,6-naphthyridin-3-yl)amino)benzenesulfonamide]
IC50 [1, 9]: 25 to 250 nM
IC50 [2, 6]: > 250 nM
IC50 [3, 7]: > 250 nM
IC50 [4, 8]: > 250 nM

SMILES: CC#Cc1nccc2cnc(Nc3ccc(S(=O)(=O)Nc4nccc(C(F)(F)F)n4)cc3)cc12 [Ex 891, 4-((5-(prop-1-yn-1-yl)-2,6-naphthyridin-3-yl)amino)-N-(4-(trifluoromethyl)pyrimidin-2-yl)benzenesulfonamide]
IC50 [1, 9]: 25 to 250 nM
IC50 [2, 6]: > 250 nM
IC50 [3, 7]: > 250 nM
IC50 [4, 8]: > 250 nM

SMILES: Cc1c(-c2nccc3cnc(Nc4ccc(S(=O)(=O)Nc5nccc(N6CCN(C)CC6)n5)cc4)cc23)ccc2c1cnn2CC(C)(C)O [Ex 892, 4-((5-(1-(2-hydroxy-2-methylpropyl)-4-methyl-1H-indazol-5-yl)-2,6-naphthyridin-3-yl)amino)-N-(4-(4-methylpiperazin-1-yl)pyrimidin-2-yl)benzenesulfonamide]
IC50 [1, 5]: < 25 nM
IC50 [2, 6]: > 250 nM
IC50 [3, 7]: > 250 nM
IC50 [4, 8]: > 250 nM

SMILES: Cc1c(-c2nccc3cnc(Nc4ccc(S(=O)(=O)Nc5nccc(N6CCOCC6)n5)cc4)cc23)ccc2c1cnn2CC(C)(C)O [Ex 893, 4-((5-(1-(2-hydroxy-2-methylpropyl)-4-methyl-1H-indazol-5-yl)-2,6-naphthyridin-3-yl)amino)-N-(4-morpholinopyrimidin-2-yl)benzenesulfonamide]
IC50 [1, 5]: < 25 nM
IC50 [2, 6]: > 250 nM
IC50 [3, 7]: > 250 nM
IC50 [4, 8]: > 250 nM

Further lines, results first:

IC50 [1, 5]: < 25 nM
IC50 [2, 6]: > 250 nM
IC50 [3, 7]: > 250 nM
IC50 [4, 8]: > 250 nM
SMILES: Cc1c(-c2nccc3cnc(Nc4ccc(S(=O)(=O)Nc5nc(F)cc(F)n5)cc4)cc23)ccc2c1cnn2CC(C)(C)O [Ex 868, N-(4,6-difluoropyrimidin-2-yl)-4-((5-(1-(2-hydroxy-2-methylpropyl)-4-methyl-1H-indazol-5-yl)-2,6-naphthyridin-3-yl)amino)benzenesulfonamide]

IC50 [1, 9]: 25 to 250 nM
IC50 [2, 6]: > 250 nM
IC50 [3, 7]: > 250 nM
IC50 [4, 8]: > 250 nM
SMILES: CCOc1ccc(C#Cc2nccc3cnc(Nc4ccc(S(C)(=O)=O)cc4)cc23)cn1 [Ex 869, 5-((6-ethoxypyridin-3-yl)ethynyl)-N-(4-(methylsulfonyl)phenyl)-2,6-naphthyridin-3-amine]

IC50 [1, 10]: > 250 nM
IC50 [2, 6]: > 250 nM
IC50 [3, 7]: > 250 nM
IC50 [4, 8]: > 250 nM
SMILES: CS(=O)(=O)c1ccc(Nc2cc3c(C#Cc4ccc(C(F)(F)F)nc4)nccc3cn2)cc1 [Ex 870, N-(4-(methylsulfonyl)phenyl)-5-((6-(trifluoromethyl)pyridin-3-yl)ethynyl)-2,6-naphthyridin-3-amine]

IC50 [1, 9]: 25 to 250 nM
IC50 [2, 6]: > 250 nM
IC50 [3, 7]: > 250 nM
IC50 [4, 8]: > 250 nM
SMILES: CS(=O)(=O)c1ccc(Nc2cc3c(C#Cc4c(F)cncc4F)nccc3cn2)cc1 [Ex 871, 5-((3,5-difluoropyridin-4-yl)ethynyl)-N-(4-(methylsulfonyl)phenyl)-2,6-naphthyridin-3-amine]

IC50 [1, 9]: 25 to 250 nM
IC50 [2, 6]: > 250 nM
IC50 [3, 7]: > 250 nM
IC50 [4, 8]: > 250 nM
SMILES: CS(=O)(=O)c1ccc(Nc2cc3c(C#Cc4cc(F)ncc4F)nccc3cn2)cc1 [Ex 872, 5-((2,5-difluoropyridin-4-yl)ethynyl)-N-(4-(methylsulfonyl)phenyl)-2,6-naphthyridin-3-amine]

IC50 [1, 9]: 25 to 250 nM
IC50 [2, 6]: > 250 nM
IC50 [3, 7]: > 250 nM
IC50 [4, 8]: > 250 nM
SMILES: CS(=O)(=O)c1ccc(Nc2cc3c(C#Cc4cncc(F)c4)nccc3cn2)cc1 [Ex 873, 5-((5-fluoropyridin-3-yl)ethynyl)-N-(4-(methylsulfonyl)phenyl)-2,6-naphthyridin-3-amine]

IC50 [1, 9]: 25 to 250 nM
IC50 [2, 6]: > 250 nM
IC50 [3, 7]: > 250 nM
IC50 [4, 8]: > 250 nM
SMILES: CS(=O)(=O)c1ccc(Nc2cc3c(C#Cc4ccc(F)nc4)nccc3cn2)cc1 [Ex 874, 5-((6-fluoropyridin-3-yl)ethynyl)-N-(4-(methylsulfonyl)phenyl)-2,6-naphthyridin-3-amine]

IC50 [1, 10]: > 250 nM
IC50 [2, 6]: > 250 nM
IC50 [3, 7]: > 250 nM
IC50 [4, 8]: > 250 nM
SMILES: CS(=O)(=O)c1ccc(Nc2cc3c(C#Cc4cc(F)c(F)c(F)c4)nccc3cn2)cc1 [Ex 875, N-(4-(methylsulfonyl)phenyl)-5-((3,4,5-trifluorophenyl)ethynyl)-2,6-naphthyridin-3-amine]

IC50 [1, 9]: 25 to 250 nM
IC50 [2, 6]: > 250 nM
IC50 [3, 7]: > 250 nM
IC50 [4, 8]: > 250 nM
SMILES: CC#Cc1nccc2cnc(Nc3ccc(S(=O)(=O)Nc4nccc(N5CCOCC5)n4)cc3)cc12 [Ex 878, N-(4-morpholinopyrimidin-2-yl)-4-((5-(prop-1-yn-1-yl)-2,6-naphthyridin-3-yl)amino)benzenesulfonamide]

IC50 [1, 9]: 25 to 250 nM
IC50 [2, 6]: > 250 nM
IC50 [3, 7]: > 250 nM
IC50 [4, 8]: > 250 nM
SMILES: CC#Cc1nccc2cnc(Nc3ccc(S(=O)(=O)Nc4nccc(OC)n4)cc3)cc12 [Ex 879, N-(4-methoxypyrimidin-2-yl)-4-((5-(prop-1-yn-1-yl)-2,6-naphthyridin-3-yl)amino)benzenesulfonamide]

IC50 [1, 5]: < 25 nM
IC50 [2, 6]: > 250 nM
IC50 [3, 7]: > 250 nM
IC50 [4, 8]: > 250 nM
SMILES: Cc1c(-c2nccc3cnc(Nc4ccc(S(=O)(=O)Nc5ncc(F)cn5)cc4)cc23)ccc2c1cnn2CC(C)(C)O [Ex 880, N-(5-fluoropyrimidin-2-yl)-4-((5-(1-(2-hydroxy-2-methylpropyl)-4-methyl-1H-indazol-5-yl)-2,6-naphthyridin-3-yl)amino)benzenesulfonamide]

IC50 [1, 9]: 25 to 250 nM
IC50 [2, 6]: > 250 nM
IC50 [3, 7]: > 250 nM
IC50 [4, 8]: > 250 nM
SMILES: Cc1c(-c2nccc3cnc(Nc4ccc(S(=O)(=O)Nc5nccc(F)n5)cc4)cc23)ccc2c1cnn2CC(C)(C)O [Ex 881, N-(4-fluoropyrimidin-2-yl)-4-((5-(1-(2-hydroxy-2-methylpropyl)-4-methyl-1H-indazol-5-yl)-2,6-naphthyridin-3-yl)amino)benzenesulfonamide]
